Tests used:
Format in all cases: biochemical
[1] = target: T1, FXIIa (Homo sapiens, UniProt P00748); test: Determination of Factor XIIa inhibition (chromogenic substrate S-2302); settings: human FXIIa alpha, Ki category
T1 construct: FXIIa alpha
T1 sequence (P00748 373-615 limits assumed): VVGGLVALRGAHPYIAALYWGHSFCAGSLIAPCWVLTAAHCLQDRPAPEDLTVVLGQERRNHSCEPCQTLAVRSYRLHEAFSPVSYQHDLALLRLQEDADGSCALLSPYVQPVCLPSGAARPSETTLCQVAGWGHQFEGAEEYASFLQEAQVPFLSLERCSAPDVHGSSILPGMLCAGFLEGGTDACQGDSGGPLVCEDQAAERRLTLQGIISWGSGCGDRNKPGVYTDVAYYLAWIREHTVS
T1 sequence (P00748 20-372 partner limits assumed): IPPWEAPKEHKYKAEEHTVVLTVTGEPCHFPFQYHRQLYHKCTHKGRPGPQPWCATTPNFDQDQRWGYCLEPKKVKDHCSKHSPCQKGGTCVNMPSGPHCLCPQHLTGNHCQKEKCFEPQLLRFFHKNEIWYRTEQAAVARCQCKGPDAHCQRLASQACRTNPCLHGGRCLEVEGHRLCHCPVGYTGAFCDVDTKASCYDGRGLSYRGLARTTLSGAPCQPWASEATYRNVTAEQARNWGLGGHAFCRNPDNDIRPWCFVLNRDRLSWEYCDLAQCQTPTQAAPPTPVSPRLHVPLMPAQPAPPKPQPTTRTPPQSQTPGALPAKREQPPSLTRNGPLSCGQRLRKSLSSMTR
Description: (§1) The activities of the compounds of the invention have been determined in vitro using the following assays protocols for the screening of activity of FXIIa and other proteases. Each of these assays were performed in a purified system employing the use of chromogenic assays in microplate plate wells. Chromogenic peptide substrates mimicking natural protein substrates are attached via an amide bond to a chromogenic group. Paranitroaniline (pNA) is released from the peptide following catalyses by the proteolytic enzyme; the absorbance increases and can be monitored at 405 nm.
(§2) All compounds were dissolved in 100% (v/v) DMSO to a stock concentration of 10 mM, the highest concentration of compound used in each assay is 500 μM. The final concentrations of DMSO were 5% (v/v) in 50 mM Tris 137 mM NaCl pH 7.4. Where no test compound was added a final concentration of 5% DMSO was employed.
Factor XIIa activity was measured using a chromogenic substrate S-2302 (Chromogenix). Various concentrations of compound were incubated with 10 nM of FXIIa and incubated at 37° C. for 10 minutes in 50 mM Tris, 137 mM NaCl, pH 7.4, prior to the addition of the chromogenic substrate S-2302 at a concentration equal the to the experimentally derived KM. Kinetic readings at 405 nm were monitored every 12 secs for a total duration of 3 hours at 37° C. Gradients of initial rates were determined and employed to calculate IC50 values.
The activity of the compounds of the invention has been categorised based on the Ki values, the categories being “†”, “*”, “**” and “***”. […] The category “**” refers to compounds with a Ki value of 0.2 μM to 0.8 μM.
(§3) Ki═IC50/(1+[Substrate]/Km)
(§4) Where [Substrate] denotes the concentration of substrate used in the assay and Km is the determined value of each enzyme with its own substrate.

[2] = target: FXa (Homo sapiens, UniProt P00742); test: Determination of selectivity: FXa inhibition (chromogenic substrate S2765); settings: fold selectivity for FXIIa over FXa (human); category
FXa, sequence (P00742 235-488 limits assumed): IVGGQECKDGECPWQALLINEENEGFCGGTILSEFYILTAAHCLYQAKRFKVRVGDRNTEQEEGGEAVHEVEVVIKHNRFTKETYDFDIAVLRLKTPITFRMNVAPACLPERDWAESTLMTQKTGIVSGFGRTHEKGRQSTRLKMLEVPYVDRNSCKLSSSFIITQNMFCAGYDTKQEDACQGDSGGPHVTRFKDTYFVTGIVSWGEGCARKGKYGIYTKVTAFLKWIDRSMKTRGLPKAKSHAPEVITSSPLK
FXa, sequence (P00742 41-179 partner limits assumed): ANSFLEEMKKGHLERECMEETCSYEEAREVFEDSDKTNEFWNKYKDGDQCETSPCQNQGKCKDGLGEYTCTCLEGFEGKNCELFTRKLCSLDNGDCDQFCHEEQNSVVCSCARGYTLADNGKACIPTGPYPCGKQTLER
Description: as §1, §2
(§5) To determine selectivity of test compounds, these test compounds were assayed for inhibitory activity against other serine proteases including FXa and thrombin. Essentially compounds at increasing concentrations were incubated with each enzyme: FXa (5 nM) and thrombin (5 nM), for 10 mins at 37° C. followed by the appropriate chromogenic substrate, S2765 (Chromogenix) and GPR (Bachem) respectively in 50 mM Tris, 137 mM NaCl, pH 7.4. Substrates were used at a concentration equal to the appropriate experimentally derived KM. Kinetic readings at 405 nm were monitored every 12 secs for a total duration of 3 hours at 37° C. Gradients of initial rates were determined and employed to calculate IC50 values. Values of IC50 were converted to Ki values based on the formula:
as §3, §4
The fold selectivity for FXIIa over FXa for the compounds of the invention has been categorised based on the fold selectivity values, the categories being “o”, “oo” and “ooo”. The category “o” refers to fold selectivity values less than 10 (e.g. a fold selectivity value of less than 10 and greater than 1). The category “oo” refers to a fold selectivity value of 10 to 100. The category “ooo” refers to fold selectivity values greater than 100.

[3] = target: T2, thrombin (Homo sapiens, UniProt P00734); test: Determination of selectivity: thrombin inhibition (chromogenic substrate GPR); settings: fold selectivity for FXIIa over thrombin (human); category
T2 construct: FXa (5 nM) and thrombin (5 nM)
Description: as §1, §2, §5, §3, §4
The fold selectivity for FXIIa over thrombin for the compounds of the invention has been categorised based on the fold selectivity values, the categories being “+”, “++” and “+++”. The category “+” refers to fold selectivity values less than 10 (e.g. a fold selectivity value of less than 10 and greater than 1). The category “++” refers to a fold selectivity value of 10 to 100. The category “+++” refers to fold selectivity values greater than 100.

SMILES	Ki [1]	FXa (human)/FXIIa alpha (human) [2]	Thrombin (human)/FXIIa alpha (human) [3]
Cn1ncc2cc(CNC(=O)[C@@H]3C[C@@H](Cc4ncc(C5CC5)o4)CN3C(=O)[C@@H]3NCCC[C@@H]3C(=O)N3CCCC3)ccc21 [Example M06009]	200 to 800 nM	∘∘∘	+++ (fold selectivity values greater than 100)
Cc1ccc(C[C@@H]2C[C@@H](C(=O)NCc3cnc4[nH]cc(Cl)c4c3)N(C(=O)[C@@H]3NCCC[C@@H]3C(=O)N3CCCC3)C2)cc1 [Example M05899, (2S,4R)-N-((3-chloro-1H-pyrrolo[2,3-b]pyridin-5-yl)methyl)-4-(4-methylbenzyl)-1-((2R,3S)-3-(pyrrolidine-1-carbonyl)piperidine-2-carbonyl)pyrrolidine-2-carboxamide]	< 200 nM	∘∘	+ (fold selectivity values less than 10 (e.g. a fold selectivity value of less than 10 and greater than 1))
Cc1ccc(C[C@@H]2C[C@@H](C(=O)NCc3ccc4c(cnn4C)c3)N(C(=O)[C@@H]3NCCC[C@@H]3C(=O)N3CCCC34CC4)C2)cc1 [Example M05773]	200 to 800 nM	∘∘∘	++ (a fold selectivity value of 10 to 100)
Cc1ccc(C[C@@H]2C[C@@H](C(=O)NCc3ccc4c(cnn4C)c3)N(C(=O)[C@@H]3NCCC[C@@H]3C(=O)N(C)C3CCN(C)C3)C2)cc1 (stereo partly drawn) [Example M06033, (2R,3S)-N-methyl-2-((2S,4R)-2-(((1-methyl-1H-indazol-5-yl)methyl)carbmoyl)-4-(4-methylbenzyl)pyrrolidine-1-carbonyl)-N-(1-methylpyrrolidin-3-yl)piperidine-3-carboxamide]	< 200 nM	∘∘∘	+++ (fold selectivity values greater than 100)
Cc1ccc(C[C@@H]2C[C@@H](C(=O)NCc3ccc4c(c3)c(F)nn4C)N(C(=O)[C@@H]3NCCC[C@@H]3C(=O)N3CCCC3)C2)cc1 [Example M05806, (2S,4R)-N-((3-fluoro-1-methyl-1H-indazol-5-yl)methyl)-4-(4-methylbenzyl)-1-((2R,3S)-3-(pyrrolidine-1-carbonyl)piperidine-2-carbonyl)pyrrolidine-2-carboxamide]	< 200 nM	∘∘∘	+++ (fold selectivity values greater than 100)
Cc1ccc(C[C@@H]2C[C@@H](C(=O)NCc3ccc4c(cnn4C)c3)N(C(=O)[C@@H]3NCCC[C@@H]3C(=O)N3C4CCC3CC4)C2)cc1 [Example M05804, (2S,4R)-1-((2R,3S)-3-(7-azabicyclo[2.2.1]heptane-7-carbonyl)piperidine-2-carbonyl)-N-((1-methyl-1H-indazol-5-yl)methyl)-4-(4-methylbenzyl)pyrrolidine-2-carboxamide]	200 to 800 nM	∘∘∘	+++ (fold selectivity values greater than 100)
Cc1ccc(C[C@@H]2C[C@@H](C(=O)NCc3ccc4c(cnn4C)c3)N(C(=O)[C@@H]3NCCC[C@@H]3C(=O)N(C)CCN3CC(F)(F)C3)C2)cc1 [Example M06129, (2R,3S)-N-(2-(3,3-difluoroazetidin-1-yl)ethyl)-N-methyl-2-((2S,4R)-2-(((1-methyl-1H-indazol-5-yl)methyl)carbamoyl)-4-(4-methylbenzyl)pyrrolidine-1-carbonyl)piperidine-3-carboxamide]	< 200 nM	∘∘∘	+++ (fold selectivity values greater than 100)
Cc1ccc(C[C@@H]2C[C@@H](C(=O)NCc3ccc4c(cnn4C)c3)N(C(=O)[C@@H]3NCCC[C@@H]3C(=O)N(C)CCN(C)C)C2)cc1 (single isomer, unassigned) [Example M05902]	< 200 nM	∘∘∘	+++ (fold selectivity values greater than 100)
Cn1nnc2cc(CNC(=O)[C@@H]3C[C@@H](Cc4cccc5ccccc45)CN3C(=O)[C@@H]3NCCC[C@@H]3C(=O)N3CCCC3)ccc21 [Example M05877, (2S,4R)-N-((1-methyl-1H-benzo[d][1,2,3]triazol-5-yl)methyl)-4-(naphthalen-1-ylmethyl)-1-((2R,3S)-3-(pyrrolidine-1-carbonyl)piperidine-2-carbonyl)pyrrolidine-2-carboxamide]	< 200 nM	∘∘∘	+++ (fold selectivity values greater than 100)
Cc1ccc(C[C@@H]2C[C@@H](C(=O)NCc3ccc4c(cnn4C)c3)N(C(=O)[C@@H]3NCCC[C@@H]3C(=O)N(C)C3CCN(C)CC3)C2)cc1 [Example M06061, (2R,3S)-N-methyl-2-((2S,4R)-2-(((1-methyl-1H-indazol-5-yl)methyl)carbamoyl)-4-(4-methylbenzyl)pyrrolidine-1-carbonyl)-N-(1-methylpiperidin-4-yl)piperidine-3-carboxamide]	< 200 nM	∘∘∘	+++ (fold selectivity values greater than 100)
Cc1ccc(C[C@@H]2C[C@@H](C(=O)NCc3ccc4c(cnn4C)c3)N(C(=O)[C@@H]3NCCC[C@@H]3C(=O)N3CC[C@@H](N(C)C)C3)C2)cc1 [Example M06010, (2S,4R)-1-((2R,3S)-3-((R)-3-(dimethylamino)pyrrolidine-1-carbonyl)piperidine-2-carbonyl)-N-((1-methyl-1H-indazol-5-yl)methyl)-4-(4-methylbenzyl)pyrrolidine-2-carboxamide]	200 to 800 nM	∘∘∘	+++ (fold selectivity values greater than 100)
Cc1ccc(C[C@@H]2C[C@@H](C(=O)NCc3ccc4c(cnn4C)c3)N(C(=O)[C@@H]3NCCC[C@@H]3C(=O)N3CCC4(CC3)CC4)C2)cc1 [Example M05775, (2S,4R)-1-((2R,3S)-3-(6-azaspiro[2.5]octane-6-carbonyl)piperidine-2-carbonyl)-N-((1-methyl-1H-indazol-5-yl)methyl)-4-(4-methylbenzyl)pyrrolidine-2-carboxamide]	800 to 5000 nM	∘∘∘	++ (a fold selectivity value of 10 to 100)
Cc1ccc(C[C@@H]2C[C@@H](C(=O)NCc3ccn4c(C)nnc4c3)N(C(=O)[C@@H]3NCCC[C@@H]3C(=O)N3CCCC3)C2)cc1 [Example M05855, (2S,4R)-N-((3-methyl-[1,2,4]triazolo[4,3-a]pyridin-7-yl)methyl)-4-(4-methylbenzyl)-1-((2R,3S)-3-(pyrrolidine-1-carbonyl)piperidine-2-carbonyl)pyrrolidine-2-carboxamide]	200 to 800 nM	∘∘∘	+++ (fold selectivity values greater than 100)

From US20240294498A1, “FACTOR XIIA INHIBITORS” (Lunac Therapeutics Ltd, priority 2021, published 2024)
